Source: patent publication US20260297060A1, “COMPOUNDS FOR THE DEGRADATION OF MUTANT BRAF” (C4 THERAPEUTICS, INC., priority 2023, published 2026)
Read-outs that look alike come from different tables or passages of the source.

Key:
[1] = tested on: A375-NRAS^Q61K cells; experiment: CTGlo Cell Viability Assay, A375-NRAS^Q61K (A375.11) cells, 96 hours; format: cell-based, human; conditions: A375.11 (A375-NRAS^Q61K) cells; for CTGlo A375.11 96 hours Emax / Emax: lowest % viability achieved
How it was run: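 A375 cells carrying BRAF V600E and NRAS Q61K were seeded at 250 cells/well with a 10-point half-log dose series (max 10 μM final). After 96 h at 37 °C, viability was read as ATP luminescence (CellTiter-Glo), background-subtracted and normalized to DMSO (100%). GI50 from 4-parameter fit; Emax is the lowest % viability.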

[2] = molecular target: T1, BRAF V600E (Homo sapiens, UniProt P15056+Q96SW2, V600E); experiment: BRAF V600E HiBiT Degradation Assay; format: cell-based; conditions: for Emax: read-out: HiBiT-Degradation A375.10 BRAF 2 hours Emax
T1 construct: knock-in of the HiBiT tag to the endogenous BRAF V600E locus; host or cells: A375.10 (A375 clonal line, CRISPR HiBiT knock-in at the endogenous BRAF V600E locus)
T1 sequence (P15056 whole entry V600E): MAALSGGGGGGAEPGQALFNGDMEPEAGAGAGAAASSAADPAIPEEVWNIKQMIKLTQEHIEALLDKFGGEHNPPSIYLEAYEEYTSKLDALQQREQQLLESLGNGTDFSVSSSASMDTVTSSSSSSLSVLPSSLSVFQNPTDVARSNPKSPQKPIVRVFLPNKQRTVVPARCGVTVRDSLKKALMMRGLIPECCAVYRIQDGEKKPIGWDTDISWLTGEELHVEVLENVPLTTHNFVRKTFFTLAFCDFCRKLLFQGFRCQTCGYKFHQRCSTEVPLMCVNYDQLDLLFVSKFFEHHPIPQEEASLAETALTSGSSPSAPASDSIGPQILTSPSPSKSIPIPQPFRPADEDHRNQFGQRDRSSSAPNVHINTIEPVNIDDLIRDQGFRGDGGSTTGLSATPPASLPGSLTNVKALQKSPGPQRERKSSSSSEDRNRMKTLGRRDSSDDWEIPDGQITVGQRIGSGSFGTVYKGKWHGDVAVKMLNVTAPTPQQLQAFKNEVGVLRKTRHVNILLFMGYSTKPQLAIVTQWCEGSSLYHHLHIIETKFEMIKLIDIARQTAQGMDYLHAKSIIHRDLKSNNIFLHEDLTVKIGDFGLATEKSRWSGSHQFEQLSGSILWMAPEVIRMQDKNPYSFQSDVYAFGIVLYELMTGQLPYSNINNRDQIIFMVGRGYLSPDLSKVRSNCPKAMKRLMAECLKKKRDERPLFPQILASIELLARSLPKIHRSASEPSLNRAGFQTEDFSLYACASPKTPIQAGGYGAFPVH
T1 sequence (Q96SW2 whole entry): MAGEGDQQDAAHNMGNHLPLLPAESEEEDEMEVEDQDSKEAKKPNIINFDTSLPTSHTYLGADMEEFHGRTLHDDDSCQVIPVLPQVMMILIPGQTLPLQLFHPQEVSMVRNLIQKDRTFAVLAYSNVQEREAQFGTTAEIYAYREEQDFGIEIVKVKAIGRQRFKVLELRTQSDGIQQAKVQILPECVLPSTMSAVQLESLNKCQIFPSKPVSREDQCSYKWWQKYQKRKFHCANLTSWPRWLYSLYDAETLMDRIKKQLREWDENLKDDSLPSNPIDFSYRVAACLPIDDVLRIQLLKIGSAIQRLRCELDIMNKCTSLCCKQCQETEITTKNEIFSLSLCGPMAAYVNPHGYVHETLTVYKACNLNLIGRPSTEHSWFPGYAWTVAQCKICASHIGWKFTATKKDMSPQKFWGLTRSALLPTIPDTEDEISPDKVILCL
T1 sequence (Q16531 whole entry partner): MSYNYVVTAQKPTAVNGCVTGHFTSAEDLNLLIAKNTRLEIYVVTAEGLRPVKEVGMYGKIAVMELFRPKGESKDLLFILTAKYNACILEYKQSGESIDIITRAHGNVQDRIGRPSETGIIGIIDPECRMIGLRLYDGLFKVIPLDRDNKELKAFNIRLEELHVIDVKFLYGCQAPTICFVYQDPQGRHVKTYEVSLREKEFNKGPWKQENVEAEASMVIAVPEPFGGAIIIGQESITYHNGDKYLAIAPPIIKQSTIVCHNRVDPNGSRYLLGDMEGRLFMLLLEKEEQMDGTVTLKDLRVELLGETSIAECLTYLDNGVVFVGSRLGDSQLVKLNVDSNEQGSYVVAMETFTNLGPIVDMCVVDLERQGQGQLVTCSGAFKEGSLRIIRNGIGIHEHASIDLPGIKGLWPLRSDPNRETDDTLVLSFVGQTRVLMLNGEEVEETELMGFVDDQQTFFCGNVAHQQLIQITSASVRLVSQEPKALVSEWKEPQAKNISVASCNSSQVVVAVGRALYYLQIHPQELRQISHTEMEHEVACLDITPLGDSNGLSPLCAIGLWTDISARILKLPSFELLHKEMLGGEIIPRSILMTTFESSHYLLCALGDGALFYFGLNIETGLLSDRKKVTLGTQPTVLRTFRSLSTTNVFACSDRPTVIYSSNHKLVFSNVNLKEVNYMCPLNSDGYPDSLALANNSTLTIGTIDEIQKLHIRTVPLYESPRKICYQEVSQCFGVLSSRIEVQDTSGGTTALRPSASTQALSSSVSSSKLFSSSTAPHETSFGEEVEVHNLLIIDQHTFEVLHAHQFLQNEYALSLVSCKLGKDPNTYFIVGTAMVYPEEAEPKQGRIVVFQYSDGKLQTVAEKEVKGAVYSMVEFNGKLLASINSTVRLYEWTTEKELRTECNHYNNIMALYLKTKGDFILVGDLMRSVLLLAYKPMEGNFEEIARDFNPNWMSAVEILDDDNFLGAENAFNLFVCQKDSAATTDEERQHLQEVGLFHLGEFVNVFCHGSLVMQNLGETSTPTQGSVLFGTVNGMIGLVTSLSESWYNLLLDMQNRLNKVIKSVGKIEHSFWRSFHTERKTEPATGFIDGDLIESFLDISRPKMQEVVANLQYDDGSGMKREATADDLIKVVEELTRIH
How it was run: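 Endogenous HiBiT knock-in on BRAF V600E in A375 cells (clone A375.10); 11-point half-log series, top 10 μM, 2, 6 or 24 h at 37° C. Lytic HiBiT luminescence, background-subtracted, normalized to DMSO; 4-parameter fit gives DC50, Emax (residual protein) and IP (inflection point).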

[3] = A375.10 cells, BRAF V600E, 2 hours, inflection point, read-out: HiBiT-Degradation A375.10 BRAF 2 hours IP
[4] = A375.10 cells, BRAF V600E, 2 hours, read-out: HiBiT-Degradation A375.10 BRAF 2 hours DC50
[5] = A375.10 cells, BRAF V600E, 2 hours, residual protein remaining

SMILES | GI50 [1] | HiBiT-Degradation A375.10 BRAF 2 hours Emax [2] | DC50 [2, 3] | DC50 [2, 4] | GI50 ([1]; Homo sapiens, 96 h) | Emax [2, 5] | HiBiT-Degradation A375.10 BRAF 2 hours Emax [2, 5] | CTGlo A375.11 96 hours Emax [1] | Emax ([1]; Homo sapiens, 96 h)
CCN(C)S(=O)(=O)Nc1ccc(F)c(Oc2ccc3ncc(OC4CC5(CCN(C6CCC(c7cc8c(cc7F)c(N7CCC(=O)NC7=O)nn8C)CC6)CC5)C4)nc3c2)c1C#N (single isomer, unassigned) [Compound 219, 7-[2-cyano-3-[[ethyl(methyl)sulfamoyl]amino]-6-fluoro-phenoxy]-2-[[7-[4-[3-(2,4-dioxohexahydropyrimidin-1-yl)-5-fluoro-1-methyl-indazol-6-yl]cyclohexyl]-7-azaspiro[3.5]nonan-2-yl]oxy]quinoxaline] | > 10000 nM | ** (<90% and >50%) | < 1000 nM | < 1000 nM |  |  |  | *** (<=50%) | 
CCN(C)S(=O)(=O)Nc1ccc(F)c(Oc2ccc3ncc(OCC4(F)CCN(C5CCC(c6cc7c(cc6F)c(N6CCC(=O)NC6=O)nn7C)CC5)CC4)nc3c2)c1C#N (single isomer, unassigned) [Compound 228, 7-[2-cyano-3-[[ethyl(methyl)sulfamoyl]amino]-6-fluoro-phenoxy]-2-[[1-[4-[3-(2,4-dioxohexahydropyrimidin-1-yl)-5-fluoro-1-methyl-indazol-6-yl]cyclohexyl]-4-fluoro-4-piperidyl]methoxy]quinoxaline] |  |  | < 1000 nM | 1000 to 10000 nM | 1000 to 10000 nM | 50 to 90% |  |  | 50 to 90%

More lines, main results first:

GI50 [1] | HiBiT-Degradation A375.10 BRAF 2 hours Emax [2] | DC50 [2, 3] | DC50 [2, 4] | GI50 ([1]; Homo sapiens, 96 h) | Emax [2, 5] | HiBiT-Degradation A375.10 BRAF 2 hours Emax [2, 5] | SMILES | CTGlo A375.11 96 hours Emax [1] | Emax ([1]; Homo sapiens, 96 h)
 |  | < 1000 nM | < 1000 nM | 1000 to 10000 nM | < 50% |  | CCN(C)S(=O)(=O)Nc1ccc(F)c(Oc2ccc3ncn(C4CCC(N5CC6(CCN(c7cc8c(cc7F)c(N7CCC(=O)NC7=O)nn8C)CC6)C5)CC4)c(=O)c3c2)c1C#N (single isomer, unassigned) [Compound 221, 6-[2-cyano-3-[[ethyl(methyl)sulfamoyl]amino]-6-fluoro-phenoxy]-3-[4-[7-[3-(2,4-dioxohexahydropyrimidin-1-yl)-5-fluoro-1-methyl-indazol-6-yl]-2,7-diazaspiro[3.5]nonan-2-yl]cyclohexyl]-4-oxo-quinazoline] |  | 50 to 90%
< 1000 nM |  | < 1000 nM | < 1000 nM |  |  | *** (<=50%) | CCN(C)S(=O)(=O)Nc1ccc(F)c(Oc2ccc3ncn(C4CCC(N5CC6(CCN(c7cc8c(cc7F)c(N7CCC(=O)NC7=O)nn8C)CC6)C5)CC4)c(=O)c3c2)c1C#N (single isomer, unassigned) [Compound 222, 6-[2-cyano-3-[[ethyl(methyl)sulfamoyl]amino]-6-fluoro-phenoxy]-3-[4-[7-[3-(2,4-dioxohexahydropyrimidin-1-yl)-5-fluoro-1-methyl-indazol-6-yl]-2,7-diazaspiro[3.5]nonan-2-yl]cyclohexyl]-4-oxo-quinazoline] | ** (<90% and >50%) | 
< 1000 nM |  | < 1000 nM | < 1000 nM |  |  | *** (<=50%) | CCN(C)S(=O)(=O)Nc1ccc(F)c(Oc2ccc3ncc(OCC4(F)CCN(C5CCC(c6cc7c(cc6F)c(N6CCC(=O)NC6=O)nn7C)CC5)CC4)nc3c2)c1C#N (single isomer, unassigned) [Compound 229, 7-[2-cyano-3-[[ethyl(methyl)sulfamoyl]amino]-6-fluoro-phenoxy]-2-[[1-[4-[3-(2,4-dioxohexahydropyrimidin-1-yl)-5-fluoro-1-methyl-indazol-6-yl]cyclohexyl]-4-fluoro-4-piperidyl]methoxy]quinoxaline] | ** (<90% and >50%) | 
